From patent publication US20110269231A1, “PROTEOGLYCAN-BINDING PEPTIDES THAT MODULATE STEM CELL BEHAVIOR” (WISCONSIN ALUMNI RESEARCH FOUNDATION, priority 2010, published 2011)
Square brackets hold non-standard residues; d marks the D form. Ends that are not written are not given here. Gla = N[C@@H](CC(C(=O)O)C(=O)O)C(=O)O

How the values were obtained:
[1] = test system: hMSCs; experiment: hMSC proliferation on KRTGQYKL-SAMs in the presence of FBS and PD 173074; type: cell-based, human; conditions: 200 nM PD 173074, 10% FBS; FIG. 11
Description: Proliferation of hMSCs cultured on KRTGQYKL-SAMs in medium supplemented with FBS and PD 173074 was determined PD 173074 is a soluble inhibitor of FGF-2 and FGF-4 cognate receptors FGF receptor-1 and -3. hMSCs were cultured on SAMs presenting 2% RGDSP (SEQ ID NO: 8) and either 2% KRTGQYL (SEQ ID NO: 1) or TYRKKGLQ (SEQ ID NO: 9) in medium supplemented with 200 nM PD 173074 and 10% FBS.
hMSCs were expanded at low density on tissue culture treated polystyrene plates using the method described previously by Sotiropoulou et al. to maintain […] (Sotiropoulou et al., “Characterization of the optimal culture conditions for clinical scale production of human mesenchymal stem cells,” Stem Cells, 24:462 (2006)). At passage 6, cells were harvested from the plate, suspended in medium supplemented with 10% fetal bovine serum, and counted using a hemacytometer. Cells were collected as a pellet by centrifugation at 1100 rpm for 5 minutes, the media was decanted off of the pellet, and the cells were suspended in αMEM supplemented with 10% FBS at a density of 20,000 cells/250 μL. […] The total number of cells per viewing area was counted manually for 3 samples per condition.

[2] = test system: human umbilical vein endothelial cells (HUVECs); experiment: HUVEC proliferation versus KRTGQYKL surface density and FGF-2 concentration; type: cell-based; conditions: 2% RGDSP, 10% FBS
Description: Human umbilical vein endothelial cells (HUVECs) as a model cell type were used to investigate the correlation between the surface density of bound heparin PGs, the concentration of soluble FGF-2, and the extent of up-regulation of FGF-mediated cell proliferation.
HUVECs were cultured according to the protocol supplied by the manufacturer. Sub-confluent cells were harvested from the plate, suspended in M199 supplemented with 10% FBS, and counted using a hemacytometer. Cells were collected as a pellet by centrifugation at 1100 rpm for 5 minutes, the media was decanted off of the pellet, and the cells were suspended in fresh serum-supplemented M199 at a density of 20,000 cells/250 μL. SAMs presenting 2% RGDSP (SEQ ID NO: 8) and various densities of KRTGQYKL (SEQ ID NO: 1) were prepared by incubating NHS-activated SAMs in 1× PBS solutions containing 125 μM RGDSP (SEQ ID NO: 8), and various molar ratios of KRTGQYKL (SEQ ID NO: 1) and TYRKKGLQ (SEQ ID NO: 9) at a total concentration of 125 μM Immediately after peptide conjugation, HUVECs were seeded on the SAM substrates at a density of 10,000 cells/cm^2 in M199 supplemented with 10% FBS. […] Brightfield photomicrographs (40× mag) of each substrate were collected on an Olympus IX51 inverted epifluorescent microscope at t=0, 24, 48, and 72 hrs, and the total number of cells per viewing area was counted manually.

[3] = Binding of synthetic KRT peptide to hydroxyapatite (micro-BCA depletion); conditions: 50 μM peptide, 1 mg hydroxyapatite, 30 minutes at 37° C.
Description: A 50 μM peptide solution containing the synthetic KRT peptide, KRTGQYKLGGGAAAA(Gla)PRR(Gla)VA(Gla)L (SEQ ID NO: 12), was incubated with 1 mg of hydroxyapatite particles for 30 minutes at 37° C. After incubation, the concentration of peptide in solution was determined using a micro-BCA assay (Pierce) as a measure of the depletion of the peptide from solution due to hydroxyapatite binding.

[4] = test system: hMSCs; experiment: hMSC adhesion on RGESP- and RGDSP-presenting SAMs; type: cell-based, human; conditions: for hMSC attachment (number per unit area): RGDSP=0.0001, 0.001 or 0.01 vs RGESP alone, 12 hrs attachment
Description: (§1) To maintain multipotency, hMSCs were expanded at low density on tissue culture treated polystyrene plates. At passage 6, cells were harvested from the plate, suspended in medium supplemented with 10% fetal bovine serum, and counted using a hemacytometer. Cells were collected as a pellet by centrifugation at 1100 rpm for 5 minutes, the media was decanted off of the pellet, and the cells were suspended in fresh αMEM at a density of 20,000 cells/250 μL. SAM preparation and peptide conjugation were performed using the protocols described above Immediately after peptide conjugation, SAMs were placed into 1 mL of 1× PBS (pH 7.4) in a 12-well tissue culture plate to prevent degradation of the monolayer due to air oxidation. PBS was aspirated from the wells and replaced with 1.25 mL of αMEM, followed by addition of 250 μL of the cell suspension directly over the SAM substrate in each well. Plates were then gently rocked for 10 seconds to evenly distribute cells over the substrate surface. Substrates were then incubated for a specified time frame (12 hrs for RGESP/RGDSP SAMs, 4 hrs for RGDSP/TYRSRKY SAM in a humid environment at 37° C., 5% CO2 to allow hMSC attachment. At the end of the attachment period, the hMSC growth media was aspirated from the well and the substrates were gently washed with sterile 1× PBS to remove any loosely bound cells. The 1× PBS solution was then replaced with fresh medium. Brightfield photomicrographs of cells were then collected using an Olympus IX51 inverted microscope.
(§2) hMSCs were seeded on the SAMs as described previously. After washing away loosely bound cells using 1× PBS, cytoskeletal immunostaining of hMSCs was performed by following the protocol supplied by the manufacturer. Briefly, a 4% paraformaldehyde solution in 1× PBS was added to the wells for 15 minutes to fix the cells, followed by a 5 minute incubation in a 1× PBS solution containing 0.05% Tween-20 to permeabilize the cells. […] After blocking, a 1× PBS solution containing an anti-Vinculin primary antibody was added to each well and allowed to incubate at room temperature for 60 minutes. The wells were then washed gently three times using a 1× PBS solution containing 0.1 wt % bovine serum albumin. Immediately after washing, a 1× PBS solution containing a fluorescein-tagged […] secondary antibody and a TRITC-tagged anti-Phalloidin antibody was added to each well and allowed to incubate at room temperature for 45 minutes. Substrates were then washed using the method described previously. Cytoskeletal staining was analyzed using an Olympus IX51 inverted epifluorescent microscope equipped with FITC and TRITC filter cube sets.

[5] = test system: hMSCs; experiment: hMSC projected cell area on SAMs presenting RGDSP and TYRSRKY; type: cell-based, human
Description: as §1, §2

[6] = target: T1, alpha-5 beta-1 integrins (on human mesenchymal stem cells) (human, UniProt P08648 42-1049; P05556 21-798); experiment: hMSCs cultured on RGDSP-presenting SAMs in osteogenic induction medium (cell area, cell number, alkaline phosphatase)
T1 construct: whole, on cells; Endogenous integrin on hMSCs; also called hMSC integrin receptors
T1 sequence (P08648 42-1049, chain 1 of 2): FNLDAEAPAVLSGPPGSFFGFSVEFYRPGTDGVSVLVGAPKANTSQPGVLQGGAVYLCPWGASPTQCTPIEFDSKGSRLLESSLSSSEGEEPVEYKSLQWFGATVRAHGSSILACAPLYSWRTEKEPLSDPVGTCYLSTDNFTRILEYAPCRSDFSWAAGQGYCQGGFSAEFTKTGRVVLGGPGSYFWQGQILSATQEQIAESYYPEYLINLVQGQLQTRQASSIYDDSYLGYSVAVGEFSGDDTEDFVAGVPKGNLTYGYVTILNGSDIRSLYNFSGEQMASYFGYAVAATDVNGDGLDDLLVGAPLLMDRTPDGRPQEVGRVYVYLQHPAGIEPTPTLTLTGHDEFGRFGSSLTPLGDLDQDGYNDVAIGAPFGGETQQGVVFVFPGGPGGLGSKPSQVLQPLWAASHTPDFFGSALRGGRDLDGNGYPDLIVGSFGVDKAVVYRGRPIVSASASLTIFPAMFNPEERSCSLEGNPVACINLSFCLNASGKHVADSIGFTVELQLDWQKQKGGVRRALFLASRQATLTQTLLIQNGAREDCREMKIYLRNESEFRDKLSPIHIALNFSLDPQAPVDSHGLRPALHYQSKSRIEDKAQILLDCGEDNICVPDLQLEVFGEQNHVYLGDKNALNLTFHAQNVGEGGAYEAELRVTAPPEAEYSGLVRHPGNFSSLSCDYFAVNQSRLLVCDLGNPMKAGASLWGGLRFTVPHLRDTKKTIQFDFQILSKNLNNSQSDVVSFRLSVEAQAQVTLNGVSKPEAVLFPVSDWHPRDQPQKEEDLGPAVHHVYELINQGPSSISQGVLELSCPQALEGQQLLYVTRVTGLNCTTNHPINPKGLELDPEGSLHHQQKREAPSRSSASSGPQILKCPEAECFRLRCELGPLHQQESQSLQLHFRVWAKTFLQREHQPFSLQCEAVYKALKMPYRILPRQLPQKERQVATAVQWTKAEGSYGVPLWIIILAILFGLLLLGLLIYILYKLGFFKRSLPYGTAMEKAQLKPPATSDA
T1 sequence (P05556 21-798, chain 2 of 2): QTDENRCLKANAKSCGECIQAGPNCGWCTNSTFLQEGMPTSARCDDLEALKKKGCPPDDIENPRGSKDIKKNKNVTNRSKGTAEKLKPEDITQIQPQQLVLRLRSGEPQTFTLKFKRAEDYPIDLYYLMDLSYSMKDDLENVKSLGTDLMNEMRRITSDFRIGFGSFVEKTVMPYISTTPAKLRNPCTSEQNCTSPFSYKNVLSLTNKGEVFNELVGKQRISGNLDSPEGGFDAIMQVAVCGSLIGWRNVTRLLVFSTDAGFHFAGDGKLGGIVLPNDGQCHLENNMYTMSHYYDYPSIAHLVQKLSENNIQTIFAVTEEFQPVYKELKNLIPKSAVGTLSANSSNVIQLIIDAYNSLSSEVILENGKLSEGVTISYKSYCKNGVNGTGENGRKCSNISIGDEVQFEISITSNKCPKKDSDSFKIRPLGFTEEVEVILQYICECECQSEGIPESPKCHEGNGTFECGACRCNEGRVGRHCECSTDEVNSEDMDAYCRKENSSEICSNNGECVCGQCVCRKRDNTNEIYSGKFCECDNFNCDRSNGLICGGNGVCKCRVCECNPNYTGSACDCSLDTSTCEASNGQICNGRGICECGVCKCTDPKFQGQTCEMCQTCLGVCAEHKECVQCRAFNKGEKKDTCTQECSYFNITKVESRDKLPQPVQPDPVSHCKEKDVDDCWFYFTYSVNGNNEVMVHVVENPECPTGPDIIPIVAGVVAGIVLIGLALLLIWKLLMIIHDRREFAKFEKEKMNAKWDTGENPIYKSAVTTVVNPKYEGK
Description: SAMs were prepared as previously described. Low passage number hMSCs were harvested from polystyrene plates and seeded on SAMs presenting RGDSP (SEQ ID NO: 8), RGDSP(SEQ ID NO: 8)/[…](SEQ ID NO: 1), or RGDSP(SEQ ID NO: 8)/TYRSRKY(SEQ ID NO: 2), at specified surface densities at a cell density of 2500 cells/cm². Cells were cultured in αMEM basal medium supplemented with 10% FBS, 50 μg/mL 2-phosphate ascorbic acid, 10 mM β-glycerophosphate, and 100 nM dexamethasone for 7 days. Brightfield images of cells were collected to measure cell projected area and quantification of cell number as a function of time. At the end of the 7-day culture period, alkaline phosphatase activity was analyzed using the SensoLyte FDP alkaline phosphatase assay kid (Anaspec, Fremont, Calif.).

[7] = target: T2, recombinant human FGF-2 (human, UniProt P09038 135-288, limits assumed); experiment: PM-IRRAS of 1% KRTGQYKL-SAMs after 20 min in 1x PBS with FGF-2
T2 construct: also called rhFGF-2; fibroblast growth factor-2
T2 sequence (P09038 135-288 limits assumed): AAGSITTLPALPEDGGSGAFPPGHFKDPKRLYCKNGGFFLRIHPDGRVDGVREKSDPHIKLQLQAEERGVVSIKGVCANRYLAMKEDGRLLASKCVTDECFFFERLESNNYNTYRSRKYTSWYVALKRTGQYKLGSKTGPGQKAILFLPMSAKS
Description: PM-IRRAS was used to characterize FGF-2 binding onto […]-SAMs. 1% […] SAMs were incubated in a lx PBS solution (pH 7.4) containing 10 μg/mL recombinant human FGF-2 for 20 minutes and analyzed using PM-IRRAS.

For CCN(CC)CCCCNc1ncc2cc(-c3cc(OC)cc(OC)c3)c(NC(=O)NC(C)(C)C)nc2n1 [PD 173074], the “increased proliferation of hMSCs on KRTGQYKL SAMs” value [1] was “completely abolished”.

With KRTGQYKL the HUVEC number ([2]; surface density of 2% KRTGQYKL, 1 ng/mL FGF-2) was “significant increase” and the HUVEC number ([2]; surface density of KRTGQYKL>0.1%, 5 ng/mL FGF-2, by 72 hours) was “significant increase”.

With “KRTGQYKLGGGAAAA(Gla)PRR(Gla)VA(Gla)L (KRTGQYKLGGGAAAA[Gla]PRR[Gla]VA[Gla]L; not fully specified (C-terminus); printed as KRTGQYKLGGGAAAA(Gla)PRR(Gla)VA(Gla)L) [KRT peptide]” the “peptide bound by hydroxyapatite particles” value [3] was 66.08 nmol/m^2.

With RGDSP the “number of focal adhesion complexes versus RGDSP surface density” value ([4]; FIGS. 36 and 38) was “direct correlation”, the “hMSC attachment (number per unit area)” value [4] was “significant number of hMSCs were present” and the hMSC morphology ([4]; higher RGDSP densities (RGDSP=0.001 or 0.01)) was “more well-spread morphology”. The hMSC morphology ([4]; low density of RGDSP (RGDSP=0.0001)) was “polarized, spindle-shaped morphology”.

With “RGESP (not fully specified (C-terminus)) [amine-terminated peptide co-immobilized with RGDSP on SAMs, reference compound]” the “influence of co-immobilized peptide on RGDSP-dependent hMSC adhesion” value [4] was “did not influence RGDSP-dependent hMSC adhesion” and the “hMSC attachment (number per unit area)” value [4] was “absent”.

In the case of TYRSRKY, the “hMSC morphology (projected cell area)” value ([5]; 0.1% RGDSP, 0.1-1% TYRSRKY, 10% FBS) is reported as “rounded morphology”, the “hMSC morphology (projected cell area)” value ([5]; 0.1% RGDSP, high TYRSRKY density, absence of serum) is reported as “well-spread morphology” and the “hMSC morphology (projected cell area)” value ([5]; 0.1% RGDSP, low TYRSRKY surface density, absence of serum) is reported as “rounded hMSCs morphology”. The “hMSC morphology (projected cell area)” value ([5]; 1.0% RGDSP, 0.1-1.0% TYRSRKY, absence of serum) was “well-spread hMSC morphology”, the hMSC spreading ([5]; 1.0% RGDSP, TYRSRKY>0.5%, 10% FBS) was “decrease in hMSC spreading” and the “hMSC morphology (projected cell area)” value ([5]; SAMs presenting 0.1-1.0% TYRSRKY, no RGDSP, presence or absence of serum) was “rounded morphology”.

B1: RGDSP cell adhesion (integrin-binding) peptide (SEQ ID NO: 8), immobilized on a self-assembled monolayer (peptide)
peptide: RGDSP-NH2
modifications: also: immobilized on SAM on gold
notes: Made by Fmoc solid phase synthesis on Rink amide MBHA resin and conjugated to a SAM on gold; also called RGDSP SAMs; cell-adhesion peptide
B1: binds [6].

B2: KRTGQYKL synthetic heparin-binding peptide (SEQ ID NO: 1), immobilized on a self-assembled monolayer (peptide)
peptide: KRTGQYKL-NH2
modifications: also: immobilized on oligo(ethylene glycol) alkanethiolate SAM on gold
notes: Made by Fmoc solid phase synthesis on Rink amide MBHA resin
B2: no binding (tested: 10 µg/mL recombinant human FGF-2) [7].
